From ChEMBL document CHEMBL1145122, “Structure-based design of novel guanidine/benzamidine mimics: potent and orally bioavailable factor Xa inhibitors as novel anticoagulants” (J Med Chem, 2003)

Experiments:
in vivo [1] = conditions: dog, po
Trypsin = Trypsin (Homo sapiens, UniProt P07477+P07478+P35030); assay: Inhibition of Trypsin; type: protein assay
physchem [2] = assay: physchem
Oryctolagus cuniculus [3] = species: Oryctolagus cuniculus; assay: Concentration required for inhibition of thrombus formation in rabbit arterial-venous shunt antithrombosis model; type: functional, organism-based
in vivo [4] = conditions: dog
in vivo [5] = conditions: dog; remark: listed apart in the source
in vivo [6] = conditions: dog, po; remark: listed apart in the source
Prothrombin = Prothrombin (Homo sapiens, UniProt P00734); assay: Inhibitory activity against Thrombin
physchem [7] = conditions: octanol/water
Coagulation factor X = Coagulation factor X (Homo sapiens, UniProt P00742); assay: Inhibitory activity against Coagulation factor X (FXa)
[8] = tested on: plasma protein binding (Homo sapiens); assay: Percentage binding to human plasma proteins
Oryctolagus cuniculus [9] = species: Oryctolagus cuniculus; assay: Dose required for inhibition of thrombus formation in rabbit arterial-venous shunt antithrombosis model; type: functional
in vivo [10] = conditions: dog, iv
in vivo [11] = conditions: dog, po; remark: listed apart in the source
physchem [12] = conditions: octanol/water; remark: listed apart in the source

Sequence of Coagulation factor X (P00742 41-179 limits assumed): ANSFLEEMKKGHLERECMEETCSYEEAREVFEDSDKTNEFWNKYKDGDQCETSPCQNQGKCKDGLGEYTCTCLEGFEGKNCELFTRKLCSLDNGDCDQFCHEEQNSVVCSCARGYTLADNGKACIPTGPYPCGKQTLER
Sequence of Coagulation factor X (P00742 235-488 limits assumed): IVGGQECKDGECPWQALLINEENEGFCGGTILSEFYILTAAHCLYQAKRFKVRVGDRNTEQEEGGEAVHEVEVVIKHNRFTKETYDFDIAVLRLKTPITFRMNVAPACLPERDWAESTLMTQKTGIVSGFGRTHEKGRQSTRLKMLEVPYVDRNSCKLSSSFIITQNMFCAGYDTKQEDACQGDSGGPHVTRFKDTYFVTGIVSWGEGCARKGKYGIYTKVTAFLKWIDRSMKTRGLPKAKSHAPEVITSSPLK

Row | SMILES | Ki (Trypsin) | pKa (physchem [2]) | Ki (Prothrombin) | Ki (Coagulation factor X) | other results
1 | Cc1cc(C(=O)Nc2ccc(-c3ccccc3S(N)(=O)=O)cc2)n(-c2ccc3ccnc(N)c3c2)n1 | 2.6 µM | 6.7 | 6.5 µM | 0.00033 µM | bioavailability (in vivo [1]): 13%; IC50 (Oryctolagus cuniculus [3]): 0.69 µM; clearance (in vivo [4]): 5.5 mL/min/kg; Vd (in vivo [5]): 1.2 L/kg; half-life (in vivo [6]): 4.4 h; logP (physchem [7]): 2.6; Binding [8]: 89%; ID50 (Oryctolagus cuniculus [9]): 1.2 µM/h/kg; half-life (in vivo [10]): 3.4 h
2 | Cc1cc(C(=O)Nc2ccc(-c3ccccc3S(N)(=O)=O)cc2)n(-c2ccc3nc(N)nc(N)c3c2)n1 | > 1.6 µM | 8.1 | > 21 µM | 0.016 µM | –
3 | Cc1cc(C(=O)Nc2ccc(-c3ccccc3S(N)(=O)=O)cc2)n(-c2cccc(Cl)c2)n1 | > 1.6 µM | – | > 21 µM | 0.037 µM | –
4 | Cc1cc(C(=O)Nc2ccc(-c3ccccc3S(N)(=O)=O)cc2)n(-c2ccc3ccncc3c2)n1 | > 1.6 µM | 5.4 | > 21 µM | 0.37 µM | –
5 | Cc1cc(C(=O)Nc2ccc(-c3ccccc3S(N)(=O)=O)cc2)n(-c2cccc(N)c2)n1 | > 1.6 µM | 4.7 | > 21 µM | 0.063 µM | –
6 | Cc1cc(C(=O)Nc2ccc(-c3ccccc3S(N)(=O)=O)cc2)n(-c2ccc(N)cc2)n1 | – | 4.7 | > 21 µM | 3 µM | –
7 | Cc1cc(C(=O)Nc2ccc(-c3ccccc3S(N)(=O)=O)cc2)n(-c2cccc(B(O)O)c2)n1 | > 1.6 µM | – | > 21 µM | 0.061 µM | –
8 | Cc1cc(C(=O)Nc2ccc(-c3ccccc3S(N)(=O)=O)cc2)n(-c2ccccc2)n1 | > 1.6 µM | – | > 21 µM | 0.198 µM | –
9 | Cc1cc(C(=O)Nc2ccc(-c3ccccc3S(N)(=O)=O)cc2)n(-c2ccc3c(N)[nH]nc3c2)n1 | > 1.6 µM | – | > 21 µM | 2.8 µM | –
10 | Cc1cc(C(=O)Nc2ccc(-c3ccccc3S(N)(=O)=O)cc2)n(-c2ccc3onc(N)c3c2)n1 | > 1.6 µM | < 2.3 | > 21 µM | 0.0014 µM | clearance (in vivo [4]): 5 mL/min/kg; Vd (in vivo [5]): 0.7 L/kg; bioavailability (in vivo [11]): 26%; logP (physchem [12]): 2.3; half-life (in vivo [6]): 3.2 h; half-life (in vivo [10]): 2.8 h
11 | Cc1cc(C(=O)Nc2ccc(-c3ccccc3S(N)(=O)=O)cc2)n(CCCCN)n1 | – | 10 | > 21 µM | 12 µM | –

Now from value to molecule, other results behind:

Row | Ki (Trypsin) | pKa (physchem [2]) | Ki (Prothrombin) | Ki (Coagulation factor X) | SMILES | other results
12 | – | – | > 21 µM | 0.31 µM | Cc1cc(C(=O)Nc2ccc(-c3ccccc3S(N)(=O)=O)cc2)n(-c2cccc(C#N)c2)n1 | –
13 | – | – | > 21 µM | 0.029 µM | Cc1cc(C(=O)Nc2ccc(-c3ccccc3S(N)(=O)=O)cc2)n(-c2ccc3[nH]nc(N)c3c2)n1 | –
14 | – | 10 | > 21 µM | – | Cc1cc(C(=O)Nc2ccc(-c3ccccc3S(N)(=O)=O)cc2)n(C2CCCNC2)n1 (stereo unspecified) | –
15 | > 1.6 µM | < 0 | > 21 µM | – | Cc1cc(C(=O)Nc2ccc(-c3ccccc3S(N)(=O)=O)cc2)n(-c2cccc(C(N)=O)c2)n1 | clearance (in vivo [4]): 4.67 mL/min/kg; bioavailability (in vivo [11]): 46%; half-life (in vivo [6]): 3.9 h; logP (physchem [7]): 2.1; half-life (in vivo [10]): 3.1 h
16 | – | 4.7 | > 21 µM | 0.6 µM | Cc1cc(C(=O)Nc2ccc(-c3ccccc3S(N)(=O)=O)cc2)n(-c2ccccc2N)n1 | –
17 | – | – | > 21 µM | 5 µM | Cc1cc(C(=O)Nc2ccc(-c3ccccc3S(N)(=O)=O)cc2)n(-c2cccc(S(N)(=O)=O)c2)n1 | –
18 | > 1.6 µM | 5.7 | > 21 µM | 0.029 µM | Cc1cc(C(=O)Nc2ccc(-c3ccccc3S(N)(=O)=O)cc2)n(-c2ccc3ncnc(N)c3c2)n1 | –
19 | > 1.6 µM | 7 | > 21 µM | 0.019 µM | Cc1cc(C(=O)Nc2ccc(-c3ccccc3S(N)(=O)=O)cc2)n(-c2cccc(C(=N)NO)c2)n1 | –
20 | – | 7 | > 2.1 µM | 1.3 µM | Cc1cc(C(=O)Nc2ccc(-c3ccccc3S(N)(=O)=O)cc2)n(-c2ccc(N)nc2)n1 | –
21 | – | – | > 21 µM | – | Cc1cc(C(=O)Nc2ccc(-c3ccccc3S(N)(=O)=O)cc2)n(-c2cccc(CN)c2)n1 | –
22 | – | – | > 21 µM | 2.7 µM | Cc1cc(C(=O)Nc2ccc(-c3ccccc3S(N)(=O)=O)cc2)n(-c2cccc(S(C)=N)c2)n1 (stereo unspecified) | –
23 | > 1.6 µM | < 0 | > 21 µM | 0.011 µM | COc1ccc(-n2nc(C)cc2C(=O)Nc2ccc(-c3ccccc3S(N)(=O)=O)cc2)cc1 | clearance (in vivo [4]): 1.5 mL/min/kg; Vd (in vivo [5]): 0.52 L/kg; bioavailability (in vivo [11]): 48%; half-life (in vivo [6]): 4.5 h; logP (physchem [7]): 2.9; half-life (in vivo [10]): 4.5 h
